Measurements taken from DBAASP.
In brackets after ≈: the same amount, converted by molar mass.

Legend:
Assay in all cases: ≥ marks a high value that may be exact or a test limit, other limits are often not marked, values filed in µg/mL are converted to µM
[1] = system: Enterococcus faecalis ATCC 29212
[2] = system: Staphylococcus aureus ATCC BAA-44
Escherichia coli ML-35p = system: Escherichia coli ML-35p
[3] = system: Staphylococcus aureus ATCC 25923
[4] = system: Pseudomonas aeruginosa ATCC 27853
[5] = system: Escherichia coli ATCC 25922
[6] = system: Klebsiella pneumoniae NCIMB 13218
[7] = system: Staphylococcus aureus Newman
[8] = system: Staphylococcus aureus NCTC 8325-4
[9] = system: Cronobacter sakazakii DPC 6440
[10] = system: Pseudomonas fluorescens NCIMB 9046
[11] = system: Cronobacter sakazakii ATCC BAA-894
[12] = system: Escherichia coli NCIMB 11843
[13] = system: Staphylococcus aureus RN4220
[14] = system: Staphylococcus aureus RF122
[15] = system: Staphylococcus aureus SA113
[16] = system: Cronobacter muytjensii ATCC 51329
[17] = system: Cronobacter sakazakii DSM 4485
[18] = system: Salmonella enterica subsp. enterica serovar Typhimurium LT2
[19] = system: Corynebacterium glutamicum ATCC 13032
[20] = system: Escherichia coli DH5alpha
[21] = system: Staphylococcus aureus NCTC 10788
[22] = system: Staphylococcus aureus ATCC 12493
[23] = system: Candida albicans NCPF 1467
[24] = system: Escherichia coli NCTC 10418
Escherichia coli MG1655 = system: Escherichia coli MG1655
[25] = system: Staphylococcus epidermidis
Escherichia coli BL21 = system: Escherichia coli BL21
[26] = system: Candida albicans ATCC 2002
[27] = system: Pseudomonas aeruginosa ATCC 9027
[28] = system: Staphylococcus aureus ATCC 2592

Structure (SMILES) | MIC [5] [µM] | MIC [6] [µM] | MIC [7] [µM] | MIC [8] [µM] | MIC [9] [µM] | MIC [10] [µM] | MIC [11] [µM] | MIC [12] [µM] | MIC [13] [µM] | MIC [14] [µM] | MIC [15] [µM] | MIC [16] [µM] | MIC [17] [µM] | MIC [18] [µM] | further results
CC[C@H](C)[C@H](NC(=O)CN)C(=O)N[C@@H](CCCCN)C(=O)N[C@@H](CC(=O)O)C(=O)N[C@@H](CC(C)C)C(=O)N[C@@H](CC(C)C)C(=O)N[C@@H](CCCCN)C(=O)NCC(=O)N[C@@H](C)C(=O)N[C@@H](C)C(=O)N[C@@H](CCCCN)C(=O)N[C@@H](C)C(=O)N[C@@H](CC(C)C)C(=O)N[C@H](C(=O)N[C@@H](CCCCN)C(=O)N[C@H](C(=O)N[C@H](C(=O)N[C@@H](CC(C)C)C(=O)N[C@@H](CCCCN)C(N)=O)C(C)C)[C@@H](C)O)C(C)C [GIKDLLKGAAKALVKTVLK] | 1.7 (≈ 3.34 µg/mL) | – | – | – | – | – | – | – | – | – | – | – | – | – | MIC [1]: 50 µM (≈ 98.3 µg/mL); MIC [2]: 6.3 µM (≈ 12.4 µg/mL); MIC (Escherichia coli ML-35p): 12.5 µM (≈ 24.6 µg/mL); MIC [3]: 4.7 µM (≈ 9.24 µg/mL); MIC [4]: 25 µM (≈ 49.1 µg/mL)
CC(C)C[C@H](NC(=O)[C@H](C)NC(=O)[C@@H](N)C(C)C)C(=O)N[C@@H](CC(N)=O)C(=O)N[C@@H](CCC(=O)O)C(=O)N[C@@H](CC(N)=O)C(=O)N[C@@H](CC(C)C)C(=O)N[C@@H](CC(C)C)C(=O)N[C@@H](CCCN=C(N)N)C(=O)O [VALNENLLR] | – | ≥ 2500 | ≥ 1250 | ≥ 625 | ≥ 625 | ≥ 2500 | ≥ 1250 | ≥ 2500 | ≥ 1250 | ≥ 1250 | ≥ 1250 | ≥ 625 | ≥ 2500 | ≥ 2500 | MIC [4]: 32 µM (≈ 33.3 µg/mL)
CC[C@H](C)[C@H](NC(=O)[C@H](Cc1c[nH]c2ccccc12)NC(=O)[C@@H](N)CCCCN)C(=O)N[C@H]1CSSC[C@@H](C(=O)N[C@@H](CCCN=C(N)N)C(=O)N[C@@H](Cc2c[nH]c3ccccc23)C(=O)N[C@@H](CCCN=C(N)N)C(=O)O)NC(=O)[C@H](Cc2ccc(O)cc2)NC(=O)[C@H]([C@@H](C)O)NC(=O)[C@H]([C@@H](C)CC)NC(=O)[C@H](Cc2c[nH]c3ccccc23)NC(=O)[C@H](CCCN=C(N)N)NC(=O)CNC(=O)[C@H](CCCN=C(N)N)NC(=O)[C@H](Cc2ccc(O)cc2)NC(=O)[C@H](Cc2c[nH]c3ccccc23)NC(=O)[C@H](CC(C)C)NC(=O)[C@H](CCCN=C(N)N)NC(=O)[C@H](CCCN=C(N)N)NC1=O [KWICRRLWYRGRWITYCRWR] | – | – | – | – | – | – | – | – | – | – | – | – | – | – | MIC [19]: 0.78 µM (≈ 2.23 µg/mL); MIC [20]: 12.5 µM (≈ 35.7 µg/mL)
CC(C)C[C@H](NC(=O)[C@H](C)NC(=O)[C@H](CC(C)C)NC(=O)[C@H](CO)NC(=O)[C@H](CC(C)C)NC(=O)[C@@H](N)Cc1ccccc1)C(=O)N[C@@H](C)C(=O)N[C@@H](C)C(=O)N[C@@H](CC(C)C)C(=O)N1CCC[C@H]1C(=O)N[C@@H](CCCCN)C(=O)N[C@@H](Cc1ccccc1)C(=O)N[C@@H](CC(C)C)C(=O)N[C@H]1CSSC[C@@H](C(=O)O)NC(=O)[C@H](CCCCN)NC(=O)[C@H](CCCCN)NC(=O)[C@H](Cc2ccccc2)NC(=O)[C@H](C(C)C)NC(=O)[C@H](CC(C)C)NC1=O [FLSLALAALPKFLCLVFKKC] | 15 (≈ 33.4 µg/mL) | – | – | – | – | – | – | – | – | – | – | – | – | – | MIC [21]: ≥ 32 µM; MIC [22]: ≥ 32 µM; MIC [23]: ≥ 32 µM; MIC [3]: 15 µM (≈ 33.4 µg/mL); MIC [24]: ≥ 512 µM
CC(C)C[C@H](NC(=O)[C@H](CC(C)C)NC(=O)[C@H](CC(N)=O)NC(=O)[C@H](CCC(=O)O)NC(=O)[C@H](CC(N)=O)NC(=O)[C@H](CC(C)C)NC(=O)[C@@H](N)C(C)C)C(=O)N[C@@H](CCCCN)C(=O)O [VLNENLLK] | – | ≥ 2500 | ≥ 1250 | ≥ 1250 | ≥ 1250 | ≥ 625 | ≥ 2500 | ≥ 2500 | ≥ 1250 | ≥ 1250 | ≥ 1250 | ≥ 1250 | ≥ 1250 | ≥ 2500 | –
CC[C@H](C)[C@H](NC(=O)[C@H](CCCCN)NC(=O)[C@H](CCCN=C(N)N)NC(=O)[C@H](CCCCN)NC(=O)[C@H](CCCCN)NC(=O)[C@H](CCCCN)NC(=O)[C@H](Cc1c[nH]c2ccccc12)NC(=O)[C@H](CCCCN)NC(=O)[C@H](CC(C)C)NC(=O)[C@H](CO)NC(=O)[C@H](Cc1ccccc1)NC(=O)[C@H](CCCN=C(N)N)NC(=O)[C@H](CC(=O)O)NC(=O)[C@H](CCSC)NC(C)=O)C(=O)N[C@@H](CCCN=C(N)N)C(=O)N[C@@H](CCCN=C(N)N)C(=O)N[C@@H](CCCN=C(N)N)C(=O)N[C@@H](CCCN=C(N)N)C(=O)N[C@@H](CCCN=C(N)N)C(=O)N[C@@H](CCCN=C(N)N)C(=O)N[C@@H](CCCN=C(N)N)C(=O)N[C@@H](CCCN=C(N)N)C(=O)N[C@@H](CCCN=C(N)N)C(=O)N[C@@H](CCCN=C(N)N)C(=O)N[C@@H](CCCN=C(N)N)C(N)=O [MDRFSLKWKKKRKIRRRRRRRRRRR] | – | – | – | – | – | – | – | – | – | – | – | – | – | – | MIC (Escherichia coli MG1655): 7.5 µM (≈ 27.2 µg/mL); MIC [25]: 3 µM (≈ 10.9 µg/mL); MIC (Escherichia coli BL21): 4 µM (≈ 14.5 µg/mL)
CC[C@H](C)[C@H](NC(=O)[C@H](CCCCN)NC(=O)CNC(=O)[C@H](CC(C)C)NC(=O)[C@H](Cc1ccccc1)NC(=O)[C@H](CCC(N)=O)NC(=O)[C@H](Cc1ccccc1)NC(=O)[C@@H](N)C(C)C)C(=O)N[C@H](C(=O)N[C@@H](Cc1cnc[nH]1)C(=O)N[C@@H](Cc1cnc[nH]1)C(=O)N[C@H](C(=O)NCC(=O)N[C@@H](CC(N)=O)C(=O)N[C@@H](Cc1ccccc1)C(=O)N[C@H](C(=O)N[C@@H](Cc1cnc[nH]1)C(=O)NCC(=O)N[C@@H](Cc1ccccc1)C(=O)N[C@@H](CO)C(=O)N[C@@H](C)C(=O)N[C@H](C(=O)N[C@@H](Cc1ccccc1)C(N)=O)C(C)C)C(C)C)C(C)C)[C@@H](C)CC [VFQFLGKIIHHVGNFVHGFSAVF] | – | – | – | – | – | – | – | – | – | – | – | – | – | – | MIC (Escherichia coli MG1655): ≥ 64 µM
CC(C)C[C@H](NC(=O)[C@H](CC(N)=O)NC(=O)[C@H](CCC(=O)O)NC(=O)[C@H](CC(N)=O)NC(=O)[C@H](CC(C)C)NC(=O)[C@@H](N)C(C)C)C(=O)N[C@@H](C)C(=O)N[C@@H](CCCN=C(N)N)C(=O)O [VLNENLAR] | – | ≥ 1250 | ≥ 1250 | ≥ 625 | ≥ 625 | ≥ 1250 | ≥ 2500 | ≥ 1250 | ≥ 1250 | ≥ 1250 | ≥ 625 | ≥ 2500 | ≥ 2500 | ≥ 2500 | –
CC(C)C[C@H](NC(=O)[C@H](CC(C)C)NC(=O)[C@H](CC(C)C)NC(=O)[C@@H]1CCCN1C(=O)[C@H](CC(C)C)NC(=O)[C@@H](N)Cc1ccccc1)C(=O)N[C@@H](CO)C(=O)N[C@@H](C)C(=O)N[C@@H](CC(C)C)C(=O)N1CCC[C@H]1C(=O)N[C@@H](CO)C(=O)N[C@@H](Cc1ccccc1)C(=O)N[C@@H](CC(C)C)C(=O)N[C@H]1CSSC[C@@H](C(=O)O)NC(=O)[C@H](CCCCN)NC(=O)[C@H](CCCCN)NC(=O)[C@H](Cc2ccccc2)NC(=O)[C@H](C(C)C)NC(=O)[C@H](CC(C)C)NC1=O [FLPLLLSALPSFLCLVFKKC] | 33 (≈ 74.3 µg/mL) | – | – | – | – | – | – | – | – | – | – | – | – | – | MIC [26]: ≥ 44 µM; MIC [21]: ≥ 32 µM; MIC [22]: ≥ 512 µM; MIC [27]: > 44 µM; MIC [23]: ≥ 512 µM; MIC [24]: ≥ 512 µM; MIC [28]: 17 µM (≈ 38.3 µg/mL)
